The record followed here is PubChem BioAssay AID1919014 (Molecular Pharmacology Branch, DTP, NCI, 2023).

pIC50: −log10 of the molar value. Several values for one entry are separate records, joined by “and”; a condition that tells them apart may be missing. Identical values can stand only once.

The test relates to NCI-H1341 complex spheroids, percent test/control. The test can be described thus: Anticancer human tumor NCI-H1341 cell line growth inhibition [AhR].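 For all read-outs here: spheroids exposed to agents for seven days before readout.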 The following applies: for viability, T/C: stronger effect = lower value; for pIC50: curve of compound. An excerpt: Multicellular complex tumor spheroid response to aryl hydrocarbon receptor antagonists in combination with a variety of drugs and investigational agents in selected tumor cell lines
The current study was undertaken to assess response to aryl hydrocarbon receptor antagonists in combination with standard-of-care drugs and investigational agents in solid tumor complex spheroid models. Complex spheroids include a stromal component modeled by human endothelial cells (HUVEC) and fibroblasts modeled by human mesenchymal stem cells (MSCs). The concentration ranges selected for each drug and investigational agent were based upon clinically achievable concentrations if the clinical Cmax of the agent was known.
Compounds. The drugs and investigational agents: BAY 2416964 (NSC825713), GNF351 (NSC835774), CH-223191 (NSC835775), CPI-455 (NSC825282), aza-TdCyd (NSC777586), decitabine (NSC127716), belinostat (NSC758774), entinostat (NSC756642), pevonedistat (NSC761192), tazemetostat (NSC777109), talazoparib (NSC765396), olaparib (NSC753686), selinexor (NSC780203), nedisertib (M3814, NSC802822), bortezomib (NSC756655), venetoclax (NSC766270), doxorubicin (NSC123127), elimusertib (BAY189344, NSC800525), ceralasertib (AZD6738, NSC777638), TAK-243 (NSC785004), alisertib (NSC759677), etoposide (NSC141540), topotecan (NSC609699), eribulin (NSC707389), gemcitabine (NSC613327), carboplatin (NSC241240), cisplatin (NSC119875), and SN-38 (NSC673596) were obtained from the National Cancer Institute (NCI) Developmental Therapeutics Program Chemical Repository (32). The FDA-approved anticancer drug set is available from the Developmental Therapeutics Program at https://dtp.cancer.gov/organization/dscb/obtaining/available plates.htm. […] The stock solutions were prepared in dimethyl sulfoxide (DMSO, Sigma-Aldrich, St. Louis, MO, cat. D2650), except for the platinum compounds which were prepared in saline (Quality Biological, Gaithersburg, MD, cat. 114-055-101), at 800-fold the tested concentration and stored at -70 degrees C prior to their use. All drugs and investigational agents were tested over a range starting from a high concentration at or near the clinical Cmax and decreasing in half-log increments. If the clinical Cmax for an agent had not been determined, the highest concentration tested was 10 microM (Table 1).
Cell Culture. All cells were maintained in an incubator at 37 degrees C and 5% CO2 with 95% humidity. The PDC lines were cultured according to standard operating procedures established by the NCI PDMR (https://pdmr.cancer.gov). Briefly, all PDCs were thawed and cultured in Matrigel-coated flasks prepared with a working solution of 1X Ham's F-12 nutrient mix, without supplementation (Invitrogen, Waltham, MA, cat. 11765054), 100 U/mL penicillin-streptomycin (Invitrogen, cat. 15140122), and 2.5% Matrigel (Corning Inc., Corning, NY, cat. 354248) for the first three passages. All PDCs were cultured in complete DMEM/F-12 media containing advanced DMEM/F-12 (Invitrogen, cat. 12634028), 4.9% defined fetal bovine serum, heat inactivated (HyClone Laboratories Inc., Logan, UT, cat. SH30070.03HI), 389 ng/mL hydrocortisone (Sigma-Aldrich, cat. H4001), 9.7 ng/mL human EGF recombinant protein (Invitrogen, cat. PHG0313), 23.4 microg/mL adenine (Sigma-Aldrich, cat. A2786), 97.3 U/mL penicillin-streptomycin (Invitrogen, cat. 15140122), 1.9 mM L-glutamine (Invitrogen, cat. 25030081), and 9.7 microM Y-27632 dihydrochloride (Tocris Bioscience, Bristol, United Kingdom, cat. 1254). The PDCs were cultured in complete DMEM/F12 media without 10 microM Y-27632 dihydrochloride for at least two passages prior to the screen. The established cell lines NCI-H1341 and […] were cultured in DMEM/F-12, HEPES (Invitrogen, cat. 11330032), 5% defined fetal bovine serum (HyClone Laboratories Inc., cat. SH30070.03), ITS premix universal culture supplement [insulin (5 microg/mL), transferrin (5 microg/mL), and selenious acid (5 ng/mL)] […]

As for `CC(C)CC(NC(=O)C(Cc1ccccc1)NC(=O)c1cnccn1)B(O)O` (configuration not stated), the pIC50 was 8.30 and 8.34. Under “compound 0.000949 µM”, the viability, T/C is 97% and 95% and 100%. Where the note is “compound 0.003 µM”, the viability, T/C was 87.7% and 87% and 79%. The viability, T/C (compound 0.00949 µM) was 2.76% and 3.47% and 0.86%. Also, under “compound 0.03 µM”, the viability, T/C is 0.19% and 0.35% and 0.14%. The viability, T/C (compound 0.0949 µM) was 0.14% and 0.25% and 0.11%. Also, the viability, T/C (compound 0.3 µM) was 0.17% and 0.31% and 0.15%.
With `CC1(C)CCC(CN2CCN(c3ccc(C(=O)NS(=O)(=O)c4ccc(NCC5CCOCC5)c([N+](=O)[O-])c4)c(Oc4cnc5[nH]ccc5c4)c3)CC2)=C(c2ccc(Cl)cc2)C1`, the pIC50 was < 5.00 and 5.68 and 5.66. Besides, the viability, T/C (compound 0.0316 µM) was 113% and 85.5% and 86.1%. The viability, T/C (compound 0.1 µM) was 97% and 69.1% and 76.1%. Under “compound 0.316 µM”, the viability, T/C was 95.7% and 108% and 96.4%. In addition, the viability, T/C (compound 1 µM) was 101% and 68% and 72.1%. Also, the viability, T/C (compound 3.16 µM) is 92.2% and 38.2% and 39.1%. Moreover, the viability, T/C (compound 10 µM) is 85.7% and 14% and 10.1%.
`CC1COCCN1c1cc(-c2ccnn2C)c2ccnc(-c3ccn[nH]3)c2n1` (configuration not stated): the pIC50 is 7.36 and 7.10 and 7.42. Moreover, the viability, T/C (compound 0.00316 µM) was 107% and 90.1% and 110%. Where the note is “compound 0.01 µM”, the viability, T/C was 115% and 99.5% and 98.4%. Besides, where the note is “compound 0.0316 µM”, the viability, T/C is 60.1% and 77.4% and 53.4%. The viability, T/C (compound 0.1 µM) was 28.1% and 43% and 29.3%. Besides, for the setting “compound 0.316 µM”, the viability, T/C is 23.1% and 38.5% and 23.2%. Further, under “compound 1 µM”, the viability, T/C was 16.5% and 27.6% and 19.2%.
As to `CCN(c1cc(-c2ccc(CN3CCOCC3)cc2)cc(C(=O)NCc2c(C)cc(C)[nH]c2=O)c1C)C1CCOCC1`, the negative-log IC50 (pIC50) is less than 5.52. Moreover, the viability, T/C (compound 0.00949 µM) is 94.3% and 103% and 94.7%. Also, the viability, T/C (compound 0.03 µM) is 84.3% and 90.7% and 97%. Further, where the note is “compound 0.0949 µM”, the viability, T/C was 101% and 87.8% and 83%. Moreover, the viability, T/C (compound 0.3 µM) was 85% and 87.6% and 82.2%. For the same compound, the viability, T/C (compound 0.949 µM) is 79.2% and 119% and 90.2%. For the same compound, the viability, T/C (compound 3 µM) is 90.2% and 89.3% and 73.7%.
Consider `CC[C@@]1(O)C(=O)OCc2c1cc1n(c2=O)Cc2cc3c(CN(C)C)c(O)ccc3nc2-1`, for which the pIC50 was 7.52 and 7.25 and 7.15. For the setting “compound 0.000316 µM”, the viability, T/C is 89.2% and 92.2% and 98.9%. In addition, the viability, T/C (compound 0.001 µM) is 94.4% and 86.7% and 107%. The viability, T/C (compound 0.00316 µM) was 89.6% and 91.8% and 112%. In addition, the viability, T/C (compound 0.01 µM) was 80.9% and 79.7% and 87.2%. The viability, T/C (compound 0.0316 µM) is 48.4% and 65.8% and 57.3%. The viability, T/C (compound 0.1 µM) was 35.3% and 35% and 46.5%.
Regarding `CCc1c2c(nc3ccc(O)cc13)-c1cc3c(c(=O)n1C2)COC(=O)[C@]3(O)CC`, the pIC50 is 7.98 and 7.71 and 7.91. Also, where the note is “compound 0.000949 µM”, the viability, T/C was 89.8% and 92.6% and 89%. For the same compound, the viability, T/C (compound 0.003 µM) was 77% and 86.1% and 83.9%. Besides, the viability, T/C (compound 0.00949 µM) was 46.3% and 51.3% and 49.4%. Also, the viability, T/C (compound 0.03 µM) is 34.4% and 45.9% and 36.6%. The viability, T/C (compound 0.0949 µM) was 27.4% and 34.4% and 28.5%. Moreover, the viability, T/C (compound 0.3 µM) is 13.3% and 18.2% and 17%.
With `COc1cc(C2c3cc4c(cc3C(OC3OC5COC(C)OC5C(O)C3O)C3COC(=O)C23)OCO4)cc(OC)c1O` (configuration not stated), the viability, T/C runs as follows: (compound 0.0316 µM) 98.7% and 93.7% and 88.8%; (compound 0.1 µM) 86.3% and 90.8% and 80.8%; (compound 0.316 µM) 75.5% and 77.2% and 57%; (compound 1 µM) 44.2% and 51.9% and 53.8%; (compound 3.16 µM) 35.1% and 45.4% and 52.8%; (compound 10 µM) 35.9% and 30.7% and 53.1%.
In the case of `COc1cc(Nc2ncc3c(n2)-c2ccc(Cl)cc2C(c2c(F)cccc2OC)=NC3)ccc1C(=O)O`, the pIC50 was greater than 7.50. The viability, T/C (compound 0.0316 µM) is 33% and 48.4% and 43.1%. Further, the viability, T/C (compound 0.1 µM) was 43.8% and 51.7% and 43%. For the same compound, the viability, T/C (compound 0.316 µM) is 37% and 43.2% and 50.4%. The viability, T/C (compound 1 µM) was 29.6% and 37.5% and 36.1%. For the same compound, the viability, T/C (compound 3.16 µM) is 27.7% and 28% and 29.3%. Besides, the viability, T/C (compound 10 µM) was 22.2% and 26.8% and 26.4%.
For `COc1cccc2c1C(=O)c1c(O)c3c(c(O)c1C2=O)CC(O)(C(=O)CO)CC3OC1CC(N)C(O)C(C)O1` (configuration not stated), the pIC50 was > 7.50 and 6.73 and 6.94. Also, the viability, T/C (compound 0.0316 µM) is 49.4% and 58.5% and 51.1%. In addition, the viability, T/C (compound 0.1 µM) is 48.7% and 55.5% and 55.7%. For the same compound, where the note is “compound 0.316 µM”, the viability, T/C is 35.4% and 44.5% and 30.1%. For the same compound, under “compound 1 µM”, the viability, T/C was 13.8% and 18.2% and 6.98%. Moreover, for the setting “compound 3.16 µM”, the viability, T/C is 0.92% and 1.68% and 0.74%. Further, the viability, T/C (compound 10 µM) was 4.71% and 5.46% and 2.82%.

For orientation: viability, T/C means the ratio of treated to control. A word on the pIC50: it is the IC50 on a negative log10 scale, so that one unit is a factor of ten.
